≈ marks a conversion by molar mass, not a printed value. Read-outs that look alike come from different tables or passages of the source.
How the values were obtained:
P388 ascitic leukemia = test: Activity against P388 ascitic leukemia in mice; type: in vivo; details: for activity against P388 leukemia, in words: preliminary test in mice
Text: Activity against P388 ascitic leukemia. Treatment i.p. on day one after tumour inoculation.

HeLa cells = HeLa cells cloning efficiency in vitro; type: cell-based; details: for IC50: read-out: ID50 (HeLa cells cloning efficiency); for cytotoxicity on HeLa cells cloning efficiency, in words: in vitro, compared with daunorubicin
Method: Activity on HeLa cells cloning efficiency in vitro. Treatment for 24 hours

[1] = 2.9 mg/kg i.p. on day one after tumour inoculation
[2] = 4.4 mg/kg i.p. on day one after tumour inoculation
[3] = 6.6 mg/kg i.p. on day one after tumour inoculation
[4] = 6 mg/kg i.p. on day one after tumour inoculation
[5] = 9 mg/kg i.p. on day one after tumour inoculation
[6] = 13.5 mg/kg i.p. on day one after tumour inoculation
[7] = Homo sapiens, HeLa, 24 h, read-out: % of controls (HeLa cells cloning efficiency)
[8] = 10 mg/kg i.p. on day one after tumour inoculation
[9] = 20 mg/kg i.p. on day one after tumour inoculation
[10] = 40 mg/kg i.p. on day one after tumour inoculation

## COc1cccc2c1C(=O)c1c(O)c3c(c(O)c1C2=O)C[C@@](O)(C(C)=O)C[C@@H]3O[C@H]1C[C@H](N)[C@H](O)[C@H](C)O1 [Daunorubicin, daunorubicin, reference compound]
P388 ascitic leukemia; [1]
  T/C %: 181%
  Toxicity Deaths: 0/10
P388 ascitic leukemia; [2]
  T/C %: 140%
  Toxicity Deaths: 9/10
P388 ascitic leukemia; [3]
  T/C %: 118%
  Toxicity Deaths: 10/10
HeLa cells; Homo sapiens, HeLa, dose 3.1 ng/ml, treatment for 24 hours, data of 2 experiments, read-out: % of controls (HeLa cells cloning efficiency)
  activity at 0.0031 µg/mL: 88 to 98%
HeLa cells; Homo sapiens, HeLa, dose 6.2 ng/ml, treatment for 24 hours (daunorubicin: data of 2 experiments), read-out: % of controls (HeLa cells cloning efficiency)
  activity at 0.0062 µg/mL: 73 to 87%
HeLa cells; Homo sapiens, HeLa, treatment for 24 hours (daunorubicin: data of 2 experiments)
  IC50: 0.012 µg/mL (≈ 0.0227 µM)

## COc1cccc2c1C(=O)c1c(O)c3c(c(O)c1C2=O)C[C@@](O)(C(C)=O)C[C@@H]3O[C@H]1C[C@H](N)[C@H](N)[C@H](C)O1 [XOO-O132 (I-A), 4'-amino-4'-deoxy-daunorubicin]
P388 ascitic leukemia; [4]
  T/C %: 181%
  Toxicity Deaths: 0/10
P388 ascitic leukemia; [5]
  T/C %: 190%
  Toxicity Deaths: 0/10
P388 ascitic leukemia; [6]
  T/C %: 222%
  Toxicity Deaths: 0/10
P388 ascitic leukemia; P388 leukemia in mice, 13.5 mg/kg
  activity at the maximal dose tested, in words: highly active
P388 ascitic leukemia; P388 leukemia in mice, compared with daunorubicin
  toxicity, in words: less toxic than daunorubicin
P388 ascitic leukemia; compared with daunorubicin
  activity against P388 leukemia, in words: much more active daunorubicin
HeLa cells; [7]
  activity at 0.0062 µg/mL: 98%
  activity at 0.025 µg/mL: 70%
  activity at 0.1 µg/mL: 0%
HeLa cells; Homo sapiens, HeLa, 24 h
  IC50: 0.035 µg/mL (≈ 0.0665 µM)
HeLa cells
  cytotoxicity on HeLa cells cloning efficiency, in words: less cytotxic than daunorubicin

## COc1cccc2c1C(=O)c1c(O)c3c(c(O)c1C2=O)C[C@@](O)(C(C)=O)C[C@@H]3O[C@H]1C[C@H](N)[C@@H](NC(=O)C(F)(F)F)[C@H](C)O1 [XOO-O136 (I-B), 4'-deoxy-4'-epi-trifluoroacetamido-daunorubicin]
P388 ascitic leukemia; [8]
  T/C %: 145%
  Toxicity Deaths: 0/10
P388 ascitic leukemia; [9]
  T/C %: 154%
  Toxicity Deaths: 0/10
P388 ascitic leukemia; [10]
  T/C %: 163%
  Toxicity Deaths: 2/10
P388 ascitic leukemia; compared with daunorubicin
  activity against P388 leukemia, in words: much more active daunorubicin
HeLa cells; [7]
  activity at 0.1 µg/mL: 211%
  activity at 0.4 µg/mL: 21%
  activity at 1.6 µg/mL: 0%
HeLa cells; Homo sapiens, HeLa, 24 h
  IC50: 0.18 µg/mL (≈ 0.289 µM)
HeLa cells
  cytotoxicity on HeLa cells cloning efficiency, in words: less cytotxic than daunorubicin

Source: patent US4366149A, “Antitumor anthracycline glycosides, their preparation, intermediates therefor, and compositions and use thereof” (priority 1980, dated 1982)
